Test results reported in PubChem BioAssay AID1919005 (Molecular Pharmacology Branch, DTP, NCI, 2023).
Each block holds one compound with its values, some of them ahead of it.

Tested on: 855422-203-R-J1-PDC complex spheroid growth
Assay: Anticancer human tumor 855422-203-R-J1-PDC patient-derived bladder carcinoma cell line growth inhibition [AhR]
Details: for IC50: curve of first compound; for viability, T/C: stronger effect = lower value
Procedure, shortened: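 Agents were dosed in half-log steps down from roughly clinical Cmax, or from 10 microM where Cmax was unknown, alone and with AhR antagonists. Read-out: percent test/control growth of tumor spheroids containing HUVEC and MSC stromal cells.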
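Note: spheroids exposed to agents for seven days before readout.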
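Throughout, for viability, T/C: percent of DMSO vehicle control luminescence viability.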

- IC50 (second compound 0.1 µM): 5.94 nM
- IC50 (second compound 0.316 µM): 5.86 nM
- IC50 (second compound 1 µM): 5.66 nM
- IC50 (second compound 3.16 µM): 5.19 nM
- IC50 (second compound 10 µM): 4.16 nM
SMILES: CC(C)CC(NC(=O)C(Cc1ccccc1)NC(=O)c1cnccn1)B(O)O (stereo not given) + Cc1ccccc1N=Nc1ccc(NC(=O)c2ccnn2C)c(C)c1
- viability, T/C (second compound 0.1 µM, first compound 0.000949 µM): 108%
- viability, T/C (second compound 0.1 µM, first compound 0.003 µM): 135%
- viability, T/C (second compound 0.1 µM, first compound 0.00949 µM): 0.86%
- viability, T/C (second compound 0.1 µM, first compound 0.03 µM): 0.84%
- viability, T/C (second compound 0.1 µM, first compound 0.0949 µM): 1.35%
- viability, T/C (second compound 0.1 µM, first compound 0.3 µM): 0.12%
- viability, T/C (second compound 0.316 µM, first compound 0.000949 µM): 118%
- viability, T/C (second compound 0.316 µM, first compound 0.003 µM): 121%
- viability, T/C (second compound 0.316 µM, first compound 0.00949 µM): 0.21%
- viability, T/C (second compound 0.316 µM, first compound 0.03 µM): 0.02%
- viability, T/C (second compound 0.316 µM, first compound 0.0949 µM): 0.02%
- viability, T/C (second compound 0.316 µM, first compound 0.3 µM): 0.1%
- viability, T/C (second compound 1 µM, first compound 0.000949 µM): 108%
- viability, T/C (second compound 1 µM, first compound 0.003 µM): 115%
- viability, T/C (second compound 1 µM, first compound 0.00949 µM): 0.18%
- viability, T/C (second compound 1 µM, first compound 0.03 µM): 0.04%
- viability, T/C (second compound 1 µM, first compound 0.0949 µM): 0.02%
- viability, T/C (second compound 1 µM, first compound 0.3 µM): 0.11%
- viability, T/C (second compound 3.16 µM, first compound 0.000949 µM): 100%
- viability, T/C (second compound 3.16 µM, first compound 0.003 µM): 94.6%
- viability, T/C (second compound 3.16 µM, first compound 0.00949 µM): 0.91%
- viability, T/C (second compound 3.16 µM, first compound 0.03 µM): 0.03%
- viability, T/C (second compound 3.16 µM, first compound 0.0949 µM): 0.09%
- viability, T/C (second compound 3.16 µM, first compound 0.3 µM): 0.09%
- viability, T/C (second compound 10 µM, first compound 0.000949 µM): 85%
- viability, T/C (second compound 10 µM, first compound 0.003 µM): 69.6%
- viability, T/C (second compound 10 µM, first compound 0.00949 µM): 0.28%
- viability, T/C (second compound 10 µM, first compound 0.03 µM): 0.11%
- viability, T/C (second compound 10 µM, first compound 0.0949 µM): 0.12%
- viability, T/C (second compound 10 µM, first compound 0.3 µM): 0.16%

- IC50 (second compound 0.1 µM): > 10000 nM
- IC50 (second compound 0.316 µM): > 10000 nM
- IC50 (second compound 1 µM): > 10000 nM
- IC50 (second compound 3.16 µM): > 10000 nM
- IC50 (second compound 10 µM): > 10000 nM
SMILES: COc1cc(Nc2ncc3c(n2)-c2ccc(Cl)cc2C(c2c(F)cccc2OC)=NC3)ccc1C(=O)O + Cc1ccccc1N=Nc1ccc(NC(=O)c2ccnn2C)c(C)c1
- viability, T/C (second compound 0.1 µM, first compound 0.0316 µM): 109%
- viability, T/C (second compound 0.1 µM, first compound 0.1 µM): 108%
- viability, T/C (second compound 0.1 µM, first compound 0.316 µM): 88.9%
- viability, T/C (second compound 0.1 µM, first compound 1 µM): 85.1%
- viability, T/C (second compound 0.1 µM, first compound 3.16 µM): 77.7%
- viability, T/C (second compound 0.1 µM, first compound 10 µM): 73%
- viability, T/C (second compound 0.316 µM, first compound 0.0316 µM): 105%
- viability, T/C (second compound 0.316 µM, first compound 0.1 µM): 109%
- viability, T/C (second compound 0.316 µM, first compound 0.316 µM): 93.4%
- viability, T/C (second compound 0.316 µM, first compound 1 µM): 92.8%
- viability, T/C (second compound 0.316 µM, first compound 3.16 µM): 85.9%
- viability, T/C (second compound 0.316 µM, first compound 10 µM): 68.7%
- viability, T/C (second compound 1 µM, first compound 0.0316 µM): 114%
- viability, T/C (second compound 1 µM, first compound 0.1 µM): 113%
- viability, T/C (second compound 1 µM, first compound 0.316 µM): 98.7%
- viability, T/C (second compound 1 µM, first compound 1 µM): 84.3%
- viability, T/C (second compound 1 µM, first compound 3.16 µM): 78.1%
- viability, T/C (second compound 1 µM, first compound 10 µM): 76.8%
- viability, T/C (second compound 3.16 µM, first compound 0.0316 µM): 105%
- viability, T/C (second compound 3.16 µM, first compound 0.1 µM): 106%
- viability, T/C (second compound 3.16 µM, first compound 0.316 µM): 87.3%
- viability, T/C (second compound 3.16 µM, first compound 1 µM): 79.4%
- viability, T/C (second compound 3.16 µM, first compound 3.16 µM): 79.5%
- viability, T/C (second compound 3.16 µM, first compound 10 µM): 68.3%
- viability, T/C (second compound 10 µM, first compound 0.0316 µM): 87.8%
- viability, T/C (second compound 10 µM, first compound 0.1 µM): 88.8%
- viability, T/C (second compound 10 µM, first compound 0.316 µM): 81.7%
- viability, T/C (second compound 10 µM, first compound 1 µM): 89.7%
- viability, T/C (second compound 10 µM, first compound 3.16 µM): 79.2%
- viability, T/C (second compound 10 µM, first compound 10 µM): 71.2%
